# Laboratory results taken from patent US7635722B1, “Chemical induced intracellular hyperthermia” (priority 1998, dated 2009).
# Read-outs that look alike come from different tables or passages of the source.
# Key:
# HIV = experiment: DNP hyperthermia, HIV disease (Example 2); assay type: in vivo, human
# Method: (§1) Pretreatment protocol: all medications were stopped 2 weeks prior to treatment. The patient refused taking diazepam, placement of a Foley catheter and oxygen face mask. They dressed themself into a dry cold water immersion suit (Stearns, ISS-590I, Universal Adult) designed to prevent heat loss and modified for easy placement of physiologic monitors. Equipment for measurement of heart rate, temperature, carbon dioxide production and Kcal of heat produced were conducted as outlined in Example 1. An oral breathing tube was used to measure V02 from room air. Urine output was measured when the patient voluntarily urinated through a “Texas” catheter (superficial condom tightly fitted around the head of the penis with tubing connected to urine collection bag). The patient was informed that hyperthermia would be administered as tolerated by their stamina and monitored clinical parameters, not to exceed 5 hours, on a daily or every other day basis, for a total of 5 sessions.
# Treatment procedure: Baseline reading for 5 minutes established an average V02 of 300 cc/min. An initial dose of 2 mg/kg of DNP was administered over a 2 minute period. V02 increased and stabilized at 15 minutes at 340-380 cc/min. An additional 2 mg/kg DNP infusion was given, the V02 increased and stabilized at 610-630 cc/min. […] Norepinephrine bitartrate (Levophed) was given IV drip at a dose of 1 microgram/min. and adjusted to maintain blood pressure at 130/80. Approximately 1 minute after initiating the vasopressor, heart rate increased from 90 to 100 and V02 to 0.85 liters/min. […] V02 was maintained at 1.0 liters/min. by lowering or increasing the dose of norepinephrine. An additional infusion of 1 mg/kg DNP was given at hour 4 to correct a dropping V02. On occasions when the core temperature increased above 41.6° C., a lower extremity was exposed for evaporative heat loss. […] The protocol was repeated consecutively for 5 days without the additional use of vasopressors.
# [1] = assay type: in vivo, human
# Method: Placement of physiologic monitoring sensors, intravenous fluids, supplemental oxygen (4 l/min) and optional oral diazepam sedation (5-10 mg) is initiated prior to treatment. Patients receive 0.85 to 1.0 liter of intravenous (IV) 5% dextrose in 0.25 normal saline per hour alternated with 5% dextrose in 0.5 normal saline plus 7.5 to 10 meq of KCl per liter to insure a urinary output of no less than 1 ml/kg/hr. […] Two hours after treatment and 48 hours post-treatment, serum chemistries and hematologic profiles are repeated. A typical patient flow chart is depicted in FIG. 14.
# Pretreatment protocol: the patient was given 10 mg diazepam by mouth and dressed into a modified wet suit. The wet suit was cut lengthwise at the arms and legs. Velcro strappings were attached at the cuttings for closure, rapid removal or exposure of the limb(s). After placement of monitoring sensors, they were started on IV fluids of 5% dextrose, 0.5 normal saline with 7 meq K^+, infused at an initial rate of 12 cc/kg/hr. Evaporative heat loss from the head was minimized by a plastic shower cap and towels. A 401AC temperature probe (YSI Incorporated, Yellow Springs, Ohio) was inserted 11 cm. into the rectum. […] A TEEM 100 Metabolic Analysis System (AeroSport Inc., Ann Arbor, Mich.), with a modified face mask and oxygen delivery system (38-40% 02 saturation) for patient comfort and increased accuracy, was attached to the patient. Oxygen consumption (V02), carbon dioxide production (VC02), expired air volume (VE), heart rate (HR), and Kcal of heat produced were measured in 20 second intervals and extrapolated to minute or hourly rates.
# as §1
# Pretreatment protocol: the evening prior treatment the patient was instructed not to eat and dress in cotton undergarments. Approximately 4 hours prior to treatment 2 mg alprazolam was administered by mouth. The patient dressed themself into a dry cold water immersion suit (Stearns, previously described) with headgear. Monitoring sensors, including EKG display, IV fluids and Foley catheter were attached and the suit was zipped closed. The patient opted for oxygen supplementation. The modified face mask was connected to the TEEM 100 metabolic Analysis System for V02 measurements. Data was recorded as previously described.
# Pretreatment protocol: the patient was transfused with three units of packed red blood cells. A Foley catheter was inserted on each day of treatment. They were covered in a water soaked blanket containing a polyethylene lining. A shower cap with towels was used to prevent heat loss from the head. Intravenous lines were placed into both arms with 19 gauge intracaths. EKG, heart rate, rectal thermistor, and V02 monitors were attached. Oxygen supplemented facemask and equipment was attached and data monitored as previously described under Example 1.
# Pretreatment protocol: the patient was transfused with 2 units of packed red blood cells 48 hours prior to undergoing treatment. Intravenous fluids (Lactated Ringer's solution) were administered at a rate of 100 cc/hour. […]
# [2] = Example 3, peak after second dose of 2.0 mg/kg DNP
# [3] = Example 3, stable plateau after additional 1.0 mg/kg DNP
# [4] = Example 4, DNP 1 mg/kg + 3 x 0.5 mg/kg after mephenteramine
smiles,measurement,setting,value
"O=[N+]([O-])c1ccc(O)c([N+](=O)[O-])c1 [DNP, 2,4-dinitrophenol]",lymphadenopathy,HIV; 2 weeks post-treatment,resolved
same,HIV RNA,"HIV; 4, 6 and 12 weeks post-treatment",non-detectable
same,CD4+ T cell lymphocyte counts,"HIV; by week 4, stable at week 6 and 12, pretreatment 250/mm^3",380-420 cells/mm^3
same,viral load,"HIV; immediately after treatment day 5, pretreatment 400,000 copies/ml","50,000 HIV-RNA copies/ml"
same,rectal body temperature,"[1]; Example 1, DNP 1 + 3 mg/kg IV plus glucagon, maintained about 1 hour",40 °C
same,post-treatment toxicity,"[1]; Example 1, DNP with glucagon",No immediate or delayed post-treatment toxicity
same,V02 above baseline,"[1]; Example 1, stabilized after initial 1 mg/kg DNP IV",40%
same,V02,"[1]; Example 2, 15 minutes after initial 2 mg/kg DNP, baseline 300 cc/min",340-380 cc/min
same,V02,"[1]; Example 2, after additional 2 mg/kg DNP infusion",610-630 cc/min
same,blood pressure,"[1]; Example 2, gradual fall noted at 90 minutes",100/60
same,repeat blood work,"[1]; Example 2, on days of treatment","no significant hematologic, electrolyte, liver or kidney changes from baseline"
same,tolerability of the procedure,"[1]; Example 2, period of 7 hours",without any untoward effects
same,body core temperature,"[1]; Example 2, within 60 minutes, DNP 2 + 2 mg/kg",39.4 °C
same,tolerability of the procedure,[1]; Example 3,experienced no problems during the procedure but was noticeably fatigued by hour 3
same,oral temperature,"[1]; Example 3, 6.5 to 7 hours after treatment, with chills and malaise",38.7 degrees centigrade
same,V02 per kg,"[1]; Example 3, after 1 mg/kg DNP, baseline 3.7",5.3 cc/kg/min
same,V02,"[1]; Example 3, after 1 mg/kg DNP, baseline 220 cc/min",250 cc/min
same,V02,[1]; [2],400 cc/min
same,V02 per kg,[1]; [2],8.8 cc 02/kg/min
same,V02,[1]; [3],600 cc/min
same,V02 per kg,[1]; [3],10.8 cc/kg/min
same,V02,[1]; [4],780-820 cc/min
same,"core temperature, maximum",[1]; [4],41.4 °C
same,plateau temperature,"[1]; Example 4, maintained 2 hours and 30 minutes",41.5 °C
same,VO2 uptake above baseline,"[1]; Example 7, 300 mg capsule of DNP orally, three hours before, immediately prior to emission scan",40%
same,VO2 above baseline,"[1]; Example 8, DNP 1 + 2 mg/kg IV",50%
same,blood pressure and cardiac rates,[1]; Example 9,remained within normal limits
same,VO2,"[1]; Example 9, 15 minutes after additional 1 mg/kg DNP",420 cc/minute
same,VO2,"[1]; Example 9, 20 minutes after 2 mg/kg DNP IV, baseline 250 cc/minute",340-360 cc/minute
same,VO2,"[1]; Example 9, 20 minutes after additional 1 mg/kg DNP at hour 3",450-500 cc/minute
same,tolerability of the procedure,"[1]; Example 9, 6 hours",without any adverse effects
same,"rectal probe temperature increase over baseline, maximum","[1]; Example 9, DNP with methylene blue",1.3 °C
same,general toxicity,"[1]; Example 9, at any time during treatment",no evidence of general toxicity
same,VO2,"[1]; Example 9, declined by hour 3",360-380 cc/minute
same,fatigue,[1]; Example 10,notably fatigued at hour 5
same,sweating,[1]; Example 10,sweat profusely
same,VO2,"[1]; Example 10, 20 minutes after 1 mg/kg DNP, baseline 160 cc/min, interferon-alpha 6 hours before",approximately 210 cc/min
same,VO2,"[1]; Example 10, 20 minutes after additional 2 mg/kg DNP",420 cc/min
same,VO2,"[1]; Example 10, 20 minutes after additional 2.0 mg/kg DNP",360 cc/min
same,VO2,"[1]; Example 10, declined two hours after last dose",280 cc/min
same,rectal temperature above normal baseline,"[1]; Example 10, no efforts to prevent body heat loss",≤ 1.3 °C
same,VO2,"[1]; Example 10, peak 20 minutes after second dose of 1 mg/kg DNP",250 cc/min
